For one data set, the system named is CYP3A4. The settings on record: cited from earlier work.
The target in a further data set is T1, human recombinant CYP3A4 (Homo sapiens, UniProt P08684).
T1 construct: purchased Life Technologies P2858; host or cells: baculosomes (baculovirus-infected insect cell microsomes)
Kind of data set: CYP3A4 inhibition, Vivid CYP450 blue screening kit with baculosomes. The class given is biochemical. How it is done:
CYP3A4 inhibition assay was carried out by using Vivid® CYP450 Screening Kit from Life Technologies as recommended by the manufacturer (# P2858, Carlsbad, CA). This assay allows rapid measurement of interactions between drugs of interest and CYP enzymes based on their capability to inhibit the production of a fluorescent signal in reactions using CYP BACULOSOMES® Plus Reagents and specific Vivid® Substrates. Briefly, the assay was conducted in a 96-well assay plate. […] The final concentrations of 2.5, 5, 7.5, 10, 25, 50, 75, and 100 μM were achieved by diluting the stocks in 1X Vivid® CYP reaction buffer. […] For ethanol only experiment, 2.5, 5, […], 20, 30, and 50 mM final concentrations were used. The final concentration of acetonitrile in each reaction was 0.01% in 100 μl final reaction volume. The fluorescence was immediately measured using a microplate reader (Cytation™ 5 Cell Imaging Multi-Mode Reader, BioTek, VT) at the 415/460 nm excitation and emission wavelengths.
The concentrations of all the drugs were quantified using Ab Sciex Analyst® software. Microsomal kinetic data were analyzed using Michaelis-Menten and exponential decay equations. CYP3A4 inhibition data were evaluated by fitting the values to dose-response inhibition and calculated IC50 values were reported. All graphs were plotted and two-tailed t-tests were performed wherever appropriate using GraphPad Prism 5.01 (GraphPad, San Diego, CA). Significant differences between more than two groups analyzed with one-way ANOVA followed by Dunnett’s multiple comparison tests using IBM SPSS […] version 20. A p value <0.05 was considered significant compared to respective controls. The original data and/or statistical analyses for Michaelis-Menten Kinetics, drug metabolism and half-life determination, inhibition studies, and ligand docking are provided in the supporting information (S1 file).

Results on 4 compounds are retold here after article PMC4752462 (PLoS ONE, 2016).

T1 sequence (P08684 whole entry): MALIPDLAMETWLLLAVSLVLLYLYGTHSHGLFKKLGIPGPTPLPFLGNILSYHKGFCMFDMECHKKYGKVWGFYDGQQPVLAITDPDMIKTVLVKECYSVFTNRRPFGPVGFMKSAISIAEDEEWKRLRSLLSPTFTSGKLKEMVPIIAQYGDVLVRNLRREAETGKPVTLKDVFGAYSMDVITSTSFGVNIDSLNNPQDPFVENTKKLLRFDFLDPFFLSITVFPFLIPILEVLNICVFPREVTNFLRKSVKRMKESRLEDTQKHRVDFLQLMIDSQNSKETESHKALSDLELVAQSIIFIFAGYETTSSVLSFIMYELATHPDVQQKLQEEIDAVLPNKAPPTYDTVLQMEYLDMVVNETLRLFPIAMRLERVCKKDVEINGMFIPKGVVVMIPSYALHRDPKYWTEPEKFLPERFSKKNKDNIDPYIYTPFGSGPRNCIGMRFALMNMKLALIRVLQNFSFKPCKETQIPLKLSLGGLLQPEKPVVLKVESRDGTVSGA

For `Cc1c(O)cccc1C(=O)N[C@@H](CSc1ccccc1)[C@H](O)CN1C[C@H]2CCCC[C@H]2C[C@H]1C(=O)NC(C)(C)C` [nelfinavir], the “effect of ethanol exposure on the IC50 value” in the data set with CYP3A4 was “significantly decreased”.
Regarding `CC(C)CN(C[C@@H](O)[C@H](Cc1ccccc1)NC(=O)O[C@H]1CCOC1)S(=O)(=O)c1ccc(N)cc1` [amprenavir], the “effect of ethanol exposure on the IC50 value” in the data set on CYP3A4 is “significantly decreased”.
As for `CC(C)(C)NC(=O)[C@@H]1C[C@@H]2CCCC[C@@H]2CN1C[C@@H](O)[C@H](Cc1ccccc1)NC(=O)[C@H](CC(N)=O)NC(=O)c1ccc2ccccc2n1` [saquinavir], in the data set on CYP3A4, the IC50 is […].
In the case of `CCO` [EtOH, ethanol], the “CYP3A4 activity (Fig 5 inset)” value on human recombinant CYP3A4 (EtOH 2.5 mM alone) was determined as 102.61; on human recombinant CYP3A4 (EtOH 5 mM alone), 98.7735; at human recombinant CYP3A4 (EtOH 10 mM alone), 93.5305; on human recombinant CYP3A4 (EtOH 20 mM alone), 91.7899; at human recombinant CYP3A4 (EtOH 30 mM alone) it was 86.4404; on human recombinant CYP3A4 (EtOH 50 mM alone) it was 79.5554. The “inhibition of CYP3A4” value at human recombinant CYP3A4 (ethanol only at 20 mM) is given as ~ 10%.

In general, IC50 refers to the concentration that gives 50% inhibition.
